Experiments:
Conditions in all cases: scale 0 to 100
TRZAW = assay: greenhouse pre-emergence treatment, damage to crop plant TRZAW; type: in vivo
Description: (§1) The seeds of the test plants were sown separately for each species. For the pre-emergence treatment, the active ingredients, which had been suspended or emulsified in water, were applied directly after sowing by means of finely distributing nozzles. The containers were irrigated gently to promote germination and growth and subsequently covered with transparent plastic hoods until the plants had emerged. This cover caused uniform germination of the test plants, unless this has been impaired by the active ingredients. The respective benzoxazinone of formula I was formulated as a 5% by weight strength emulsion concentrate, and the safener of formula II as a 5% by weight emulsion concentrate. Optional component C can be used in its appropriate available formulation type. The benzoxazinone of formula I, the safener of formula II, and optional component C were introduced to the spray liquid with the amount of solvent system used for applying the active compound. The test period extended over 20 days. During this time, the plants were tended, and their response to the treatments with active compound was evaluated. Depending on the species, the plants were kept at 10-25° C. or 20-35° C. During the test period the plants were tended, and their response to the individual treatments was evaluated. Evaluation was carried out using a scale from 0 to 100. 100 means no emergence of the plants, or complete destruction of at least the aerial moieties, and 0 means no damage, or normal course of growth. A good herbicidal activity is given at values of at least 70 and a very good herbicidal activity is given at values of at least 85. A safener action is present if the damage to the crop plant caused by a mixture according to the present invention which contains a benzoxazinone of formula I and a safener of formula II is less than the damage caused when the benzoxazinone of formula I (optionally in mixture with a further herbicide C) according to the present invention is used without the safener of formula II.

ZEAMX = assay: greenhouse pre-emergence treatment, damage to crop plant ZEAMX; type: in vivo, Zea mays
Description: as §1

ORYSA [1] = assay: greenhouse post-emergence treatment, damage to crop plant ORYSA; type: in vivo, Oryza sativa
Description: (§2) The seeds of the test plants were sown separately for each species. For the post-emergence treatment, the test plants were first grown to a height of 1 to 15 cm, depending on the plant habit, and only then treated with the active ingredients which had been suspended or emulsified in water. For this purpose, the test plants were either sown directly and grown in the same containers, or they were first grown separately as seedlings and transplanted into the test containers a few days prior to treatment. The respective benzoxazinone of formula I was formulated as a 5% by weight strength emulsion concentrate, and the safener of formula II as a 5% by weight emulsion concentrate. Optional component C can be used in its appropriate available formulation type. The benzoxazinone of formula I, the safener of formula II, and optional component C were introduced to the spray liquid with the amount of solvent system used for applying the active compound. The test period extended over 20 days. During this time, the plants were tended, and their response to the treatments with active compound was evaluated. Depending on the species, the plants were kept at 10-25° C. or 20-35° C. During the test period the plants were tended, and their response to the individual treatments was evaluated. Evaluation was carried out using a scale from 0 to 100. […]

SETFA [2] = assay: greenhouse post-emergence treatment, herbicidal action against SETFA; type: in vivo, Setaria faberi
Description: as §2

SETFA [3] = assay: greenhouse pre-emergence treatment, herbicidal action against SETFA; type: in vivo, Setaria faberi
Description: as §1, with “85.” for “85. A safener action is present if the damage to the crop plant caused by a mixture according to the present invention which contains a benzoxazinone of formula I and a safener of formula II is less than the damage caused when the benzoxazinone of formula I (optionally in mixture with a further herbicide C) according to the present invention is used without the safener of formula II.”

ORYSA [4] = assay: greenhouse pre-emergence treatment, damage to crop plant ORYSA; type: in vivo, Oryza sativa
Description: as §1

[5] = Example 1, I.a.35 50 g/ha alone
[6] = Example 2, I.a.35 25 g/ha alone
[7] = Example 3, I.a.35 12.5 g/ha alone
[8] = Example 4, I.a.35 25 g/ha alone
[9] = Example 1, II.a.12 150 g/ha alone
[10] = Example 2, II.a.12 75 g/ha alone
[11] = Example 3, II.a.12 150 g/ha alone
[12] = Example 4, II.a.12 75 g/ha alone

How did the “damage to crop plant TRZAW” value (TRZAW; [5]) turn out when `C#CCN1C(=O)C(F)(F)Oc2cc(F)c(-n3c(=O)n(C)c(=S)n(C)c3=O)cc21` [I.a.35, 1,5-dimethyl-6-thioxo-3-(2,2,7-trifluoro-3-oxo-4-(prop-2-ynyl)-3,4-dihydro-2H-benzo[b][1,4]oxazin-6-yl)-1,3,5-triazinane-2,4-dione] was run?
The value was 65.

And the “damage to crop plant TRZAW” value (TRZAW; [6])?
The value was 60.

What about the “damage to crop plant TRZAW” value (TRZAW; [7]) of the same molecule?
Its value is 45.

And the “damage to crop plant ZEAMX” value (ZEAMX; [5])?
The value was 65.

What about the “damage to crop plant ZEAMX” value (ZEAMX; [6]) of the same molecule?
The value was 40.

What about the “damage to crop plant ZEAMX” value (ZEAMX; [7]) of the same molecule?
The value was 25.

And the “damage to crop plant ORYSA” value (ORYSA [1]; [8])?
The value was 60.

What about the “herbicidal action against SETFA” value (SETFA [2]; [8]) of the same molecule?
Its value is 100.

What about the “herbicidal action against SETFA” value (SETFA [3]; [5]) of the same molecule?
The value was 100.

What about the “herbicidal action against SETFA” value (SETFA [3]; [6]) of the same molecule?
The value was 100.

And the “herbicidal action against SETFA” value (SETFA [3]; [7])?
Its value is 90.

What about the “damage to crop plant ORYSA” value (ORYSA [4]; [5]) of the same molecule?
Its value is 65.

What about the “damage to crop plant ORYSA” value (ORYSA [4]; [6]) of the same molecule?
Its value is 40.

And the “damage to crop plant ORYSA” value (ORYSA [4]; [7])?
The value was 30.

Which results are given for `CNC(=O)Nc1ccc(S(=O)(=O)NC(=O)c2ccccc2OC)cc1` [II.a.12]?
damage to crop plant TRZAW (TRZAW; [9]): 0; damage to crop plant TRZAW (TRZAW; [10]): 0; damage to crop plant TRZAW (TRZAW; [11]): 0; damage to crop plant ZEAMX (ZEAMX; [9]): 0; damage to crop plant ZEAMX (ZEAMX; [10]): 0; damage to crop plant ZEAMX (ZEAMX; [11]): 0; damage to crop plant ORYSA (ORYSA [1]; [12]): 0; herbicidal action against SETFA (SETFA [2]; [12]): 0; herbicidal action against SETFA (SETFA [3]; [9]): 0; herbicidal action against SETFA (SETFA [3]; [10]): 0; herbicidal action against SETFA (SETFA [3]; [11]): 0; damage to crop plant ORYSA (ORYSA [4]; [9]): 0; damage to crop plant ORYSA (ORYSA [4]; [10]): 0; damage to crop plant ORYSA (ORYSA [4]; [11]): 0
